Experimental data from PMC3997423, “Identification and HLA-Tetramer-Validation of Human CD4^+ and CD8^+ T Cell Responses against HCMV Proteins IE1 and IE2” (PLoS ONE, 2014).
Where no end group is shown, it is not given here.

Experiments:
HLA-A*03:01 = HLA-A*03:01 (Homo sapiens, UniProt P04439); assay: biochemical
Protocol: (§1) Peptide-HLA class I and II binding affinities were determined as previously described [44], [45].
(§2) Complex formation was detected using a proximity-based Luminescent Oxygen Channeling Immunoassay assay and the peptide concentration leading to half-saturation (ED50) was determined as previously described [44], [45]. Under the limited receptor concentrations used here, the ED50 reflects the affinity of the interaction.
HLA-DRB3*01:01 = molecular target: T1, HLA-DRB3*01:01 (Homo sapiens, UniProt P01903+P79483); assay: Peptide-HLA class II binding affinity; settings: recombinant HLA class II α- and β-chains refolded with graded peptide, 48 h, 18°C; LOCI; ED50; read-out: Measured affinity
T1 construct: made in house
Protocol: as §1, §2

HLA-DRB1*03:01 = HLA-DRB1*03:01 (Homo sapiens, UniProt P01903+P01911, A100K/A102G/A103R/A169T/F55Y/I96L/K41T/L162R/M171V/P40S/Q125H/Q178H/Q39Y/R42S/S66N/T106N/T262R/W38E/Y61H); assay: Peptide-HLA class II binding affinity; settings: recombinant HLA class II α- and β-chains refolded with graded peptide, 48 h, 18°C; LOCI; ED50; read-out: Measured affinity
Protocol: as §1, §2
HLA-B*40:01 = HLA-B*40:01 (Homo sapiens, UniProt P01889, A65T/A93T/A95T/D138N/D98Y/E176V/E69K/N87E/Q56L/Q94N/R180L/S121R/S35A/S48T/T167S/V36M/W171L/Y33H/Y91S); assay: Peptide-HLA class I binding affinity; settings: read-out: Measured affinity
Protocol: as §1, §2
HLA-B*08:01 = HLA-B*08:01 (Homo sapiens, UniProt P01889, A93T/A95T/D138N/E176V/E187T/K202T/Q94N/R180D/S35A/V36M/Y33D/Y91F); assay: biochemical
HLA-DRB1*13:01 = HLA-DRB1*13:01 (Homo sapiens, UniProt P01903+P01911, A100E/A169T/K41T/L162R/M171V/P40S/Q125H/Q178H/Q39Y/Q99D/R42S/S66N/T262R/W38E/Y61H); assay: Peptide-HLA class II binding affinity; settings: read-out: measured affinity
Protocol: as §1, §2
HLA-DRB1*15:01 = HLA-DRB1*15:01 (Homo sapiens, UniProt P01903+P01911); assay: Peptide-HLA class II binding affinity; settings: read-out: measured affinity
Protocol: as §1, §2
HLA-DRB1*07:01 = HLA-DRB1*07:01 (Homo sapiens, UniProt P01903+P01911, A100R/A102G/A103Q/D57E/D86V/E43K/F76Y/K127E/L162R/M171V/P40G/Q125H/Q99D/R33Q/R42Y/R54Q/S133A/S66F/T210M/V115G/Y107V/Y59L/Y89S); assay: Peptide-HLA class II binding affinity; settings: read-out: measured affinity
Protocol: as §1, §2
HLA-B*55:01 = HLA-B*55:01 (Homo sapiens, UniProt P01889, A329T/C349S/D138N/D201E/E187T/E204Q/K202T/L119W/R155S/R180L/S121T/S35A/S48A/V127L/V306I/V36M/Y140L); assay: Peptide-HLA class I binding affinity; settings: read-out: Measured affinity
Protocol: as §1, §2
HLA-DRB1*01:01 = HLA-DRB1*01:01 (Homo sapiens, UniProt P01903+P01911, A100R/D57E/F55L/F60I/F76Y/I96L/L162R/M171V/P40L/Q125E/R42F/V115G/Y59C); assay: Peptide-HLA class II binding affinity; settings: read-out: measured affinity
Protocol: as §1, §2
HLA-A*68:01 = HLA-A*68:01 (Homo sapiens, UniProt P04439, A269V/D185E/E176V/E277Q/E87N/F33Y/G231S/I121M/I166T/I218V/L180W/L300P/L318F/N151K/P208A/P217A/Q86R/R169H/T345S); assay: Peptide-HLA class I binding affinity; settings: read-out: Measured affinity
Protocol: as §1, §2
HLA-C*06:02 = HLA-C*06:02 (Homo sapiens, UniProt P10321, A176E/A330V/C350S/L171W/L180W/L218V/M285V/M309V/M331V/N104K/P208H/Q277E/Q291P/R121W/S101N/S123Y/S297R/T329A/T363A/V319A/V328M); assay: Peptide-HLA class I binding affinity; settings: read-out: Measured affinity
Protocol: as §1, §2

CD8^+ T cells = assay: Ex vivo peptide-HLA class I tetramer staining; assay type: cell-based, human; settings: peptide-C*07:02 tetramer, responding donors
Protocol: To tetramerize the resulting peptide-HLA class I monomers, Streptavidin-PE or Streptavidin-APC (Biolegend, San Diego, USA) was sequentially added over 60 min at a 1∶4 molar ratio of Streptavidin to peptide-HLA-I monomers. PBMCs were resuspended in 25 µl PE- and APC-conjugated tetramer and incubated for 20 min at RT followed by 30 min incubation with anti-CD3-Pacific blue, anti-CD4-APC/Cy7, and anti-CD8-PerCP antibody (Biolegend, San Diego, USA).
HLA-B*13:02 = HLA-B*13:02 (Homo sapiens, UniProt P01889, A65T/A93T/A95T/D138N/D201E/D98Y/E176V/E204Q/E69M/E70A/G107R/K202T/L105A/L119W/N104T/N87E/Q94N/R106L/R155S/R169L/R180L/S101N/S121T/S35A/S48T/V127L/V36M/Y140L/Y91S); assay: Peptide-HLA class I binding affinity; settings: read-out: Measured affinity
Protocol: as §1, §2
HLA-A*01:01 = HLA-A*01:01 (Homo sapiens, UniProt P04439, A114D/A174V/A182V/D101N/D185E/E176A/E190D/L180R/Q94H/R68K/S129P/T187R/V100A/V91M/W191G); assay: Peptide-HLA class I binding affinity; settings: read-out: Measured affinity
Protocol: as §1, §2

Sequence of HLA-DRB1*03:01 (P01903 26-254 limits assumed, other chains not shown): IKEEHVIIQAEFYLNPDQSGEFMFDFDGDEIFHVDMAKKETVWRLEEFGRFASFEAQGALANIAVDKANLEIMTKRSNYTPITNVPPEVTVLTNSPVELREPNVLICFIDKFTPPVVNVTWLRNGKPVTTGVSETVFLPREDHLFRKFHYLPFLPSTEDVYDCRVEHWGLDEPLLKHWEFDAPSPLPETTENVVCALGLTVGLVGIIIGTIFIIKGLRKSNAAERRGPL

Molecule: KLGGALQAK [IE1_184–192]
- Kd (HLA-A*03:01): 216 nM

Molecule: VKQIKVRVDMVRHRI [IE1_86–100]
- Kd (HLA-DRB3*01:01): 109 nM
- Kd (HLA-DRB1*03:01): 4 nM

Molecule: EEAIVAYTL [IE1_381–389]
- Kd (HLA-B*40:01): 13 nM

Molecule: RIKEHMLKK [IE1_99–107]
- Kd (HLA-A*03:01): 542 nM

Molecule: QIKVRVDMV [IE1_88–96]
- Kd (HLA-B*08:01): 994 nM

Molecule: VRHRIKEHMLKKYTQ [IE1_96–110]
- Kd (HLA-DRB1*13:01): 2 nM

Molecule: CC[C@H](C)[C@H](NC(=O)[C@H](CCCCN)NC(=O)[C@@H](NC(=O)[C@H](CCCNC(=N)N)NC(=O)CNC(=O)[C@H](CCCNC(=N)N)NC(=O)[C@H](CCCNC(=N)N)NC(=O)[C@@H](N)[C@@H](C)O)C(C)C)C(=O)N[C@@H](CC(=O)O)C(=O)N[C@@H](CCC(=O)O)C(=O)N[C@H](C(=O)N[C@@H](CO)C(=O)N[C@@H](CCCNC(=N)N)C(=O)N[C@@H](CCSC)C(=O)N[C@@H](Cc1ccccc1)C(=O)O)C(C)C [IE2_356–370]
- Kd (HLA-DRB3*01:01): 2 nM
- Kd (HLA-DRB1*03:01): 9 nM

Molecule: CC[C@H](C)[C@H](NC(=O)CNC(=O)[C@@H](N)CCCCN)C(=O)N[C@@H](CCC(N)=O)C(=O)N[C@H](C(=O)N[C@H](C(=O)N[C@@H](Cc1ccc(O)cc1)C(=O)N[C@H](C(=O)N[C@@H](CCCNC(=N)N)C(=O)N[C@@H](CC(N)=O)C(=O)N[C@@H](Cc1c[nH]cn1)C(=O)N[C@@H](CCC(=O)O)C(=O)N[C@H](C(=O)N[C@@H](CCCCN)C(=O)N[C@@H](CO)C(=O)O)C(C)C)[C@@H](C)O)[C@@H](C)CC)[C@@H](C)CC [IE2_408–422]
- Kd (HLA-DRB1*15:01): 45 nM
- Kd (HLA-DRB1*07:01): 53 nM

Molecule: FPKTTNGCSQA [IE1_221–231]
- Kd (HLA-B*55:01): 138 nM

Molecule: FLMEHTMPVTHPPEV [IE2_443–457]
- Kd (HLA-DRB1*01:01): 2 nM

Molecule: TTFLQTMLR [IE1_33–41/IE2_33–41]
- Kd (HLA-A*68:01): 1 nM

Molecule: VRVDMVRHRIKEHML [IE1_91–105]
- Kd (HLA-DRB3*01:01): > 5000 nM
- Kd (HLA-DRB1*03:01): 10 nM
- Kd (HLA-DRB1*13:01): 2 nM

Molecule: QIKVRVDM [IE1_88–95]
- Kd (HLA-B*08:01): 579 nM
- Kd (HLA-C*06:02): 3 nM

Molecule: CRVLCCYVL [IE1_309–317]
- TMRI (%) (CD8^+ T cells): 0.8–8.0%

Molecule: YILGADPLRV [IE1_354-363]
- Kd (HLA-B*13:02): 87 nM

Molecule: KEVNSQLSL [IE1_42–50/IE2_42–50]
- Kd (HLA-B*40:01): 25 nM

Molecule: CSCC[C@H](NC(=O)[C@H](CC(C)C)NC(=O)[C@H](Cc1ccccc1)NC(=O)[C@@H]1CCCN1C(=O)[C@@H](NC(=O)[C@H](CO)NC(=O)[C@H](CC(C)C)NC(=O)[C@H](C)N)[C@@H](C)O)C(=O)N[C@@H](CCC(=O)O)C(=O)N[C@@H](Cc1c[nH]cn1)C(=O)N[C@H](C(=O)N[C@@H](CCSC)C(=O)N1CCC[C@H]1C(=O)N[C@H](C(=O)N[C@H](C(=O)O)[C@@H](C)O)C(C)C)[C@@H](C)O [IE2_438–452]
- Kd (HLA-DRB1*01:01): 6 nM

Molecule: TSDACMMTMY [IE1_290–299]
- Kd (HLA-A*01:01): 9 nM
